This note sets out measurements from patent publication US11484031B2, “Seed coating agent for preventing and treating wheat rot disease” (Institute of Plant Protection and Agro-products Safety, …, priority 2020, dated 2022).

For experiment [1], the system named is Gaeumannomycesgraminisvar. tritici. As to the kind of experiment: Mycelial growth assay (virulence test) of single agents and mixtures, Wadley method. The class given is cell-based. The note with it: mycelial growth on medicated medium, 25° C.; ratio G:D = silothiamine:coumoxystrobin. As to the method:
The bactericidal properties of silthiopham and coumoxystrobin are analyzed in detail. First, the EC50 ([…]) of the two single compounds of silthiostrobin and coumoxystrobin is determined. According to the EC50 of the two single drugs, the combination ratio of the two drugs is determined according to the Wadley method, and synergy coefficient SR value according to Wadley.
The test target is Gaeumannomycesgraminisvar. tritici, which causes wheat rot disease, but it is not limited to this. Silthiopham and coumoxystrobin are taken and prepared into a liquid plate about 15 ml per dish. At the edge of the pre-cultured colony, a 5 mm diameter hyphae block is prepared with a sterile puncher, and then transferred to different medium plates and cultured at 25° C. The test adopts the mycelial growth assay method, and prepares medicated medium according to different treatments. At the edge of the pre-cultured colony, a 5 mm diameter hyphae block is prepared with a sterile puncher, and then transferred to medium plates with different drug contents. […]
According to the Wadley method to evaluate the interaction of the mixture, the calculation formula is as follows: EC50(theoretical value)=(a+b)/(a/EC50a+b/EC50b), SR=EC50(theoretical value)/EC50(actual value). wherein, a and b are the content ratio of each component in the mixture, and the effect of mixing is analyzed by SR value. […]

For the next experiment, the system named is wheat seeds. The experiment in a line: Seed soaking test: emergence rate and seedling stage of wheat seeds. The note with it: seed soaking seed:drug solution=1:2, 20 minutes, after 40 days, compound sodium nitrophenolate at 0.05%, salicylic acid at 0.01%. The class given is in vivo, wheat variety "An Nong 0711". How it is done:
Seed initiator composition 1 with a measured content of 0.06% (compound sodium nitrophenolate 0.05%, salicylic acid 0.01%, the balance water) was diluted 10 times to form seed initiator composition 2 with a content of 0.006% (compound sodium nitrophenolate 0.005%, salicylic acid 0.001%, the balance water). The seed initiator composition 2 was treated with 0.05% compound sodium nitrophenolate, 0.01% salicylic acid and distilled water as a control. The effect on […] seed vigor was determined according to the above compositions. The experimental wheat variety was “An Nong 0711”, and the experiment was carried out in the experimental base of Anhui Academy of Agricultural Sciences. Seed soaking is carried out according to the weight ratio of seed:drug solution=1:2. After soaking for 20 minutes, sowing in the shade and drying in the shade, the seedling emergence rate, plant height, root length and fresh weight are calculated after 40 days.

Turning to `CCCCc1c(C)c2ccc(OCc3ccccc3/C(=C\OC)C(=O)OC)cc2oc1=O` [Coumoxystrobin(D), (E)-2-(2-(3-n-butyl-4methyl-coumarin-7-yloxy)methylphenyl)-3-methoxy Methyl acrylate], the EC50 in experiment [1] came to 2.3127 ppm.

Regarding `O=C(O)c1ccccc1O` [Salicylic acid], the “Fresh weight (10 plants, g)” value in the experiment with wheat seeds (10 plants) amounted to 1.28 ± 0.17 g. Further, in the experiment with wheat seeds, the Emergence rate was 83.8%, the Plant height is 10.5 ± 1.7 cm and the Root length was determined as 4.8 ± 1.3 cm.

As to `C=CCNC(=O)c1c([Si](C)(C)C)sc(C)c1C` [Silothiamine(G), N-allyl-4,5-dimethyl-2-(trimethylsilyl) thiophene-3-carboxamide], the EC50 in experiment [1] is listed as 0.6893 ppm.
